In data set [1] the test system is Botrytis cinerea. Briefly: Antifungal activity against Botryotinia fuckeliana assessed as inhibition of mycelial growth at 20 ppm at 21 +/- 1 degC measured after 3 days. The data set is classed as functional. The following applies: 72 h, read-out: GI.
The nature of data set [2]: Octanol-water partition coefficient, log P of the compound. The data set is classed as physicochemical.
Data set [3] concerns Fusarium culmorum. The experiment in a line: Antifungal activity against Fusarium culmorum assessed as inhibition of mycelial growth at 20 ppm at 21 +/- 1 degC measured after 5 days. The data set is classed as functional. The following applies: 120 h, read-out: GI.
The test system of data set [4] is Rhizoctonia solani. Briefly: Antifungal activity against Rhizoctonia solani assessed as inhibition of mycelial growth at 20 ppm at 21 +/- 1 degC measured after 4 days. Type of data set: functional. The following applies: 96 h, read-out: GI.
Data set [5] concerns Alternaria alternata. Briefly: Antifungal activity against Alternaria alternata assessed as inhibition of mycelial growth at 20 ppm at 21 +/- 1 degC measured after 5 days. To be noted: 120 h, read-out: GI. The data set is classed as functional.
For data set [6], the system named is Alternaria alternata. Briefly: Antifungal activity against Alternaria alternata assessed as inhibition of mycelial growth at 200 ppm at 21 +/- 1 degC measured after 5 days. Type of data set: functional. To be noted: 120 h, read-out: GI.
The test system of data set [7] is Fusarium culmorum. The experiment in a line: Antifungal activity against Fusarium culmorum assessed as inhibition of mycelial growth at 200 ppm at 21 +/- 1 degC measured after 5 days. The data set is classed as functional. The following applies: 120 h, read-out: GI.
Data set [8] deals with Botrytis cinerea. Briefly: Antifungal activity against Botryotinia fuckeliana assessed as inhibition of mycelial growth at 200 ppm at 21 +/- 1 degC measured after 3 days. Type of data set: functional. The following applies: 72 h, read-out: GI.
Data set [9] can be described thus: Lipophilicity, log K of the compound in water. The data set is classed as physicochemical. The following applies: buffer.
The test system of data set [10] is Phytophthora cactorum. The experiment in a line: Antifungal activity against Phytophthora cactorum assessed as inhibition of mycelial growth at 20 ppm at 21 +/- 1 degC measured after 5 days. Type of data set: functional. To be noted: 120 h, read-out: GI.
The subject of data set [11] is Phytophthora cactorum. The experiment in a line: Antifungal activity against Phytophthora cactorum assessed as inhibition of mycelial growth at 200 ppm at 21 +/- 1 degC measured after 5 days. The following applies: 120 h, read-out: GI. Type of data set: functional.
Data set [12] has as its system Rhizoctonia solani. Briefly: Antifungal activity against Rhizoctonia solani assessed as inhibition of mycelial growth at 200 ppm at 21 +/- 1 degC measured after 4 days. The data set is classed as functional. The following applies: 96 h, read-out: GI.

Experimental findings from ChEMBL document CHEMBL3046243, “Synthesis, antifungal activity and SAR of N-substituted and N,N-disubstituted 2,4-dihydroxythiobenzamides” (J Pestic Sci, 2006) are described below.

SMILES strings stand for the structures.

For orientation: logP means a log measure of how a compound divides between an organic and an aqueous phase. High values mean higher lipophilicity, low ones lower lipophilicity. For the compound `COc1ccc(NC(=S)c2ccc(O)cc2O)cc1O`, the inhibition of growth at 20 ppm in the data set with Botrytis cinerea [1], with Fusarium culmorum [3], with Rhizoctonia solani [4], with Alternaria alternata [5] and in the data set with Phytophthora cactorum [10] was 0% in each case. Further, the logP in [2] was determined as 2.39. For the same compound, the inhibition of growth at 200 ppm stood at 51% with Alternaria alternata [6]; 51% with Fusarium culmorum [7]; 51% in the data set with Botrytis cinerea [8]; 21% in the data set with Phytophthora cactorum [11]; 51% with Rhizoctonia solani [12]. Besides, the logKw in data set [9] is 2.52.
